Laboratory results: paper PMC7190660, “Standardised comparison of limonene-derived monoterpenes identifies structural determinants of anti-inflammatory activity” (Scientific Reports, 2020)
“And” between values parts separate entries of the source, which are not always exact repeats. Equal entries are not always repeated. “Also recorded” adds a separate entry of the source.

What was measured:
NOS2 [1] = test: NO production and NOS2 protein levels pre-induced by LPS (compound added after LPS removal) in Raw 264.7; type: cell-based, mouse; conditions: LPS 1 μg/mL 8 h, LPS removed, then 666 µM compound for 18 h
Procedure: (§1) Each column represents the mean ± SEM of, at least, three independent experiments. The blots shown are representative of, at least, three independent experiments and are cropped for clarity and conciseness.
(§2) NO production was measured as the amount of nitrite accumulated in the culture supernatants using the Griess reaction which is based in the reaction of nitrite with sulfanilamide under acidic conditions, yielding a diazonium ion that couples to N-(1-napthtyl)ethylenediamine dihydrochloride to form a water-soluble red-violet azo dye that absorbs at 550 nm[51]. Briefly, equal volumes of culture supernatants and reagents [equal volumes of 1% (w/v) sulphanilamide in 5% (v/v) phosphoric acid and 0.1% (w/v) N-(1-napthtyl)ethylenediamine dihydrochloride] were mixed and incubated for 10 min, at room temperature, in the dark. The concentration of nitrite accumulated in the culture supernatants was calculated by interpolation of the absorbance of each sample, read in Biotek Synergy HT plate reader (Biotek), in a standard curve of sodium nitrite.
(§3) Total cell extracts were prepared and western blot was performed as described before. Briefly, total (25 µg for Raw 264.7 cell line and 20 µg for human chondrocytes) proteins were separated by SDS-PAGE under reducing conditions and electrotransferred onto PVDF membranes. […] Immune complexes were detected with Enhanced ChemiFluorescence reagent (GE Healthcare) in the imaging system Thyphoon FLA 9000 (GE Healthcare). The membranes were reprobed with a mouse monoclonal anti-β-Tubulin I antibody (Sigma-Aldrich Co.), diluted at 1:20000, as a loading control, for 1 h at room temperature. Image analysis was performed with TotalLab TL120 software (Nonlinear Dynamics Ltd).

IL-1β = test: LPS-induced IL-1β mRNA, pro-IL-1β protein and secreted IL-1β in Raw 264.7; type: cell-based, mouse; conditions: for LPS-induced IL-1β mRNA levels: LPS 1 µg/mL 6 h, 1 h pre-treatment with 666 µM; for mature IL-1β secreted into the cell culture medium / pro-IL-1β protein levels: LPS 1 µg/mL 18 h, relative to LPS alone; for mature IL-1β secreted into the cell culture medium: 666 µM, ELISA
Procedure: Upon transcription, this mRNA is translated into a precursor protein (pro-IL-1β) that undergoes partial hydrolysis by a proteolytic complex, the inflammasome, being converted into the mature IL-1β protein which is then secreted.
Figure 3 (S)-(+)-carvone (4) and (R)-(−)-carvone (5) decrease LPS-induced IL-1β mRNA (a) and protein (b,c) levels in the Raw 264.7 cell line. Macrophage cultures were treated with 1 µg/mL LPS, for 6 h (a) or 18 h (b,c), following pre-treatment for 1 h with 666 µM of each test compound (a and c) or with the concentrations indicated in (b). Control cells (Ctrl) were treated with vehicle (0.1% DMSO) in the absence of LPS. Each column represents the mean ± SEM of, at least, three independent experiments. The blots shown are representative of, at least, three independent experiments and are cropped for clarity and conciseness. The corresponding full-length blots are presented in Fig. S3. *p < 0.05, **p < 0.01 and ****p < 0.0001 relative to LPS-treated cells. ^##p < 0.01, ^###p < 0.001 and ^####p < 0.0001 relative to the Ctrl. ^§p < 0.05 between the conditions indicated. MW: molecular weight marker.
(§4) This vehicle was used as control. Lipopolysaccharides from Escherichia coli 026:B6 (LPS; Sigma-Aldrich Co.) were dissolved in phosphate buffered saline (PBS). Recombinant human interleukin-1β (IL-1β; Peprotech, Rocky Hill, NJ, USA) was dissolved in PBS containing 0.1% Bovine Serum Albumin.
Total RNA extraction and qRT-PCR were performed as described before. Briefly, total RNA was extracted using the NZYol (NZYTECH, Lisbon, Portugal) and quantified in a NanoDrop ND-1000 spectrophotometer at 260 nm. RNA purity was assessed by analysis of 260/230 and 260/280 absorption ratios. The cDNA was reverse-transcribed using NZY First Strand cDNA Synthesis Kit (NZYTECH), beginning with 2 µg of total RNA. qRT-PCR was performed, in duplicate for each sample, using NZYSpeedy qPCR Green Master Mix (2×) (NZYTECH) on CFX96 Real-Time PCR Detection System (Bio-Rad, Hercules, CA, USA).
Gene expression changes were analysed using the built-in CFX Manager software which enables the analysis of the results by the Pfaffl method, a variation of the ΔΔCT method corrected for gene-specific efficiencies. The results were normalized using Hprt1 as housekeeping gene.
as §3
The concentration of IL-1β in the culture supernatants was measured using the Mouse IL-1β ELISA kit (ThermoScientific, Rockford, USA), following the manufacturer’s instructions.

Raw 264.7 cells = test: Cytotoxicity by resazurin reduction assay in Raw 264.7 cells; type: cell-based, mouse; conditions: viability not decreased by more than 30% relative to LPS alone (ISO 10993-5), LPS 1 µg/mL 18 h
Procedure: Various concentrations of the test compounds, in the absence or presence of LPS, were first evaluated for cytotoxicity using the resazurin reduction assay[26]
(§5) Raw 264.7 cells were plated at a density of 3 × 10^5 cells/mL and left to stabilize for up to 24 h.
Resazurin is a redox dye used as an indicator of cellular metabolic activity for various applications, namely cell viability, proliferation and toxicity. The assay is based on the intracellular reduction of the non-fluorescent resazurin to resorufin (a fluorescent and pink coloured compound) by mitochondrial or microsomal enzymes that use NADH or NADPH as electron sources. Since only metabolically active cells can reduce the dye, the increase in fluorescence or absorbance is directly proportional to the number of viable cells[26],[50].
(§6) To select non-cytotoxic concentrations of the test compounds, the resazurin solution was added to each well to a final concentration of 50 µM, 90 min before the end of the treatment period indicated in the figure legends. Then, absorbances at 570 nm and 620 nm (reference wavelength) were read in a Biotek Synergy HT plate reader (Biotek, Winooski, VT, USA).

NOS2 [2] = test: LPS-induced NOS2 mRNA (qRT-PCR) and protein (western blot) in Raw 264.7; type: cell-based, mouse; conditions: 1 h pre-treatment, Bay 11-7082 5 μM; for LPS-induced NOS2 mRNA levels: LPS 1 µg/mL 6 h, test compounds 666 µM; for LPS-induced NOS2 protein levels: LPS 1 µg/mL 18 h
Procedure: Macrophage cultures were treated with 1 µg/mL LPS, for 6 h (a) or 18 h (b), following pre-treatment for 1 h with 666 µM of each test compound (a) or with the concentrations indicated in (b). […] Control cells (Ctrl) were treated with the vehicle (0.1% DMSO) in the absence of LPS. Each column represents the mean ± SEM of four independent experiments. The blots shown are representative of, at least, three independent experiments and are cropped for clarity and conciseness.
Total RNA extraction and qRT-PCR were performed as described before[52]. Briefly, total RNA was extracted using the NZYol (NZYTECH, Lisbon, Portugal) and quantified in a NanoDrop ND-1000 spectrophotometer at 260 nm. RNA purity was assessed by analysis of 260/230 and 260/280 absorption ratios. The cDNA was reverse-transcribed using NZY First Strand cDNA Synthesis Kit (NZYTECH), beginning with 2 µg of total RNA. qRT-PCR was performed, in duplicate for each sample, using NZYSpeedy qPCR Green Master Mix (2×) (NZYTECH) on CFX96 Real-Time PCR Detection System (Bio-Rad, Hercules, CA, USA).
Gene expression changes were analysed using the built-in CFX Manager software which enables the analysis of the results by the Pfaffl method, a variation of the ΔΔCT method corrected for gene-specific efficiencies[53]. The results were normalized using Hprt1 as housekeeping gene.
Total cell extracts were prepared and western blot was performed as described before[54]. Briefly, total (25 µg for Raw 264.7 cell line and 20 µg for human chondrocytes) proteins were separated by SDS-PAGE under reducing conditions and electrotransferred onto PVDF membranes. […] Immune complexes were detected with Enhanced ChemiFluorescence reagent (GE Healthcare) in the imaging system Thyphoon FLA 9000 (GE Healthcare). The membranes were reprobed with a mouse monoclonal anti-β-Tubulin I antibody (Sigma-Aldrich Co.), diluted at 1:20000, as a loading control, for 1 h at room temperature. Image analysis was performed with TotalLab TL120 software (Nonlinear Dynamics Ltd).

[3] = system: LPS-induced NO production in Raw 264.7 macrophages; test: Primary screening: LPS-induced NO production (nitrite, Griess reaction) in Raw 264.7 macrophages; type: cell-based, mouse; conditions: for IC50: Mus musculus, RAW264.7, Raw 264.7 cell line; for Decrease (inhibition) of LPS-induced NO production: at the highest concentration tested; for Decrease (inhibition) of LPS-induced NO production / % inhibition of LPS-induced NO production / Effect on LPS-induced NO production / anti-inflammatory activity (in words): Raw 264.7; for % inhibition of LPS-induced NO production: at the highest non-cytotoxic concentration tested, nitrite in supernatants; for Effect on LPS-induced NO production / anti-inflammatory activity (in words): non-cytotoxic concentrations
Procedure: as §5, §4, §2

human chondrocytes [4] = test: Cell viability of IL-1β-treated primary human chondrocytes (resazurin); type: cell-based; conditions: 666 or 1331 µM; IL-1β 10 ng/mL 24 h
Procedure: as §1, §4, §6

human chondrocytes [5] = test: IL-1β-induced NOS2 protein, NO production and pro-IL-1β protein in primary human chondrocytes; type: cell-based; conditions: IL-1β 10 ng/mL 24 h
Procedure: The cells were treated with 10 ng/mL IL-1β for 24 h (a, b, c and d), following pre-treatment for 1 h with 666 or 1331 µM of (S)-(+)-carvone (4). As a positive control, the cells were similarly treated with 5 μM Bay 11-7082 (b and c). Control cells (Ctrl) were treated with the vehicle (0.1% DMSO) in the absence of IL-1β. Each column represents the mean ± SEM of, at least, three independent experiments. The blots shown are representative of, at least, three independent experiments and are cropped for clarity and conciseness.
Briefly, cartilage shavings underwent sequential digestion with Pronase (Roche, Indianapolis, IN, USA) and collagenase A (Roche, Indianapolis, IN, USA). To avoid chondrocyte dedifferentiation, non-proliferating monolayer cultures were setup by plating 1× 10^6 chondrocytes/mL in HAM: F12 medium containing 3% antibiotics and 5% FBS and allowed to recover for 24 h at 37 °C in a humidified atmosphere with 5% CO2. Prior to any treatments, chondrocytes were serum-starved overnight and thereafter maintained in culture medium without FBS.
This vehicle was used as control. […] Recombinant human interleukin-1β (IL-1β; Peprotech, Rocky Hill, NJ, USA) was dissolved in PBS containing 0.1% Bovine Serum Albumin.
Total cell extracts were prepared and western blot was performed as described before[54]. […] Immune complexes were detected with Enhanced ChemiFluorescence reagent (GE Healthcare) in the imaging system Thyphoon FLA 9000 (GE Healthcare). The membranes were reprobed with a mouse monoclonal anti-β-Tubulin I antibody (Sigma-Aldrich Co.), diluted at 1:20000, as a loading control, for 1 h at room temperature. Image analysis was performed with TotalLab TL120 software (Nonlinear Dynamics Ltd).

Raw 264.7 cell line = system: Raw 264.7 cell line; parameters: method as in PMID 20625233, PMID 23541436; conditions: concentrations much higher than in the current study; cited from earlier work
human chondrocytes [6] = system: human chondrocytes; parameters: method as in PMID 25622554; conditions: limonene up to 200 μg/mL, β-myrcene up to 50 μg/mL; cited from earlier work
[7] = carvone 666 or 1331 µM, Bay 11-7082 5 µM

C=C(C)[C@@H]1CC=C(C)C(=O)C1 [(R)-(−)-carvone (5), (R)-(−)-carvone]
Decrease of NO production (NOS2 [1]): approximately 30% | Reduction of NOS2 protein levels (NOS2 [1]): approximately 60% | LPS-induced IL-1β mRNA levels (IL-1β): significantly reduced | mature IL-1β secreted into the cell culture medium (IL-1β): significantly decreased | pro-IL-1β protein levels (IL-1β): significantly decreased | Highest non-cytotoxic concentration tested (Raw 264.7 cells): 666 µM and 100 µg/mL | LPS-induced NOS2 mRNA levels (NOS2 [2]): significantly reduced | LPS-induced NOS2 protein levels (NOS2 [2]): significantly reduced | IC50 [3]: 123 µM and 18.5 µg/mL | Decrease (inhibition) of LPS-induced NO production [3]: greater than 30% | % inhibition of LPS-induced NO production [3]: 71.50 ± 1.74 % ± SEM

C=C(C)[C@H]1CC=C(C)C(=O)C1 [(S)-(+)-carvone (4), (S)-(+)-carvone]
Decrease of NO production (NOS2 [1]): approximately 30% | Reduction of NOS2 protein levels (NOS2 [1]): approximately 60% | LPS-induced IL-1β mRNA levels (IL-1β): significantly reduced | mature IL-1β secreted into the cell culture medium (IL-1β): significantly decreased | pro-IL-1β protein levels (IL-1β): significantly decreased | Highest non-cytotoxic concentration tested (Raw 264.7 cells): 666 µM and 100 µg/mL | LPS-induced NOS2 mRNA levels (NOS2 [2]): significantly reduced | LPS-induced NOS2 protein levels (NOS2 [2]): significantly reduced | Cell viability relative to cells treated with IL-1β alone (human chondrocytes [4]): not to affect cell viability | IC50 [3]: 110 µM and 16.5 µg/mL | Decrease (inhibition) of LPS-induced NO production [3]: greater than 30% | % inhibition of LPS-induced NO production [3]: 68.73 ± 1.55 % ± SEM | pro-IL-1β protein levels (human chondrocytes [5]; 666 or 1331 µM): significantly decreased pro-IL-1β protein levels in a concentration-dependent manner | IL-1β-induced NO production (human chondrocytes [5]; [7]): significantly decreased | IL-1β-induced NOS2 protein levels (human chondrocytes [5]; [7]): significantly decreased

C=C(C)[C@H]1CC=C(C)CC1 [limonene]
Anti-inflammatory effects (Raw 264.7 cell line): Significant anti-inflammatory effects | Anti-inflammatory effects (human chondrocytes [6]): Significant anti-inflammatory effects

C=CC(=C)CCC=C(C)C [β-myrcene (16), β-myrcene]
Anti-inflammatory effects (Raw 264.7 cell line): Significant anti-inflammatory effects | Highest non-cytotoxic concentration tested (Raw 264.7 cells): 183 µM and 25 µg/mL | % inhibition of LPS-induced NO production [3]: 16.48 ± 17.00 % ± SEM | Effect on LPS-induced NO production / anti-inflammatory activity (in words) [3]: showed no activity | Effect on LPS-induced NO production / anti-inflammatory activity (in words) ([3]; listed as 16): no effect; also recorded: Neither the more rigid (17–19), nor the more flexible (16) of these four compounds showed any activity | Anti-inflammatory effects (human chondrocytes [6]): Significant anti-inflammatory effects
